From publication PMC11111408, “Concurrent inhibition of oncogenic and wild-type RAS-GTP for cancer therapy” (Nature, 2024)
“And” between values parts separate entries of the source, which are not always exact repeats. Identical values can stand only once.

Legend:
[1] = test system: DUSP6 mRNA in NCI-H441 xenograft tumours; assay: In vivo pharmacodynamic analysis by DUSP6 qPCR in NCI-H441 CDX tumours; design: species or system mouse; conditions: single dose, 72h, 25 mg/kg, tumor, individual animals
Experimental: RNA extraction and analysis of DUSP6 levels by in tumour tissue were performed as previously described.

[2] = Body weight and tolerability of tumour bearing mice; conditions: for % Body Weight Change: 10 mg/kg po qd, 10 mg/kg
Experimental: All datapoints shown, n = 3 per dose and timepoint.
Female BALB/c nude mice, NOD SCID and NSG mice 6-8 weeks old from Beijing Vital River/VR Laboratory Animal Co., LTD, Beijing AniKeeper Biotech Co., Ltd., Shanghai Sino-British SIPPR/BK Laboratory Animal Co., LTD and The Jackson Laboratory were used. Animals were housed in polycarbonate cages, in an environmentally monitored, well ventilated room maintained at a constant temperature of 20-26°C and relative humidity of 40-80%. Fluorescent lighting provided illumination approximately 12 hours per day. Each mouse was inoculated at the right flank with tumor cells (2x10^6-1x10^7) in 100-200 µL of media/PBS supplemented with Matrigel (1:1). Treatments were started when the average tumor size reached 100-250 mm^3. […] Mice on studies were weighed and tumor measurements collected twice weekly. […] For efficacy study, Animals were assigned to study groups using stratified randomization based upon their tumor volumes (n=3-10/group). […] Animals were treated for 28 days (or up to 110 for selected models) or an earlier time if tumor burden reached humane endpoint. […] Body weights were collected twice a week during the study.

KRAS^G12S [3] = target: T1, KRAS^G12S (Homo sapiens, UniProt P01116+P62937, G12S); assay: Cellular RAS–RAF (CRAF RBD) disruption, nano-BRET in U2OS cells; assay type: cell-based; design: expressed in transfected cells; host or cells: U2OS PPIA-KO; conditions: (95% CI)
From the text: (§1) KRAS4B, or other small GTPases, containing the indicated mutations were cloned in pNLF-N or pHTN plasmids for expression with an N-terminal nanoluciferase or HaloTag fusion, respectively. […] The following day, the cells were collected by Trypsin and reseeded in a white tissue culture-treated 96-well plate in OptiMem phenol red-free medium (Gibco) containing 4% FBS and a 1:1,000 dilution of NanoBRET 618 HaloTag ligand (Promega). For endpoint concentration response curves, vivazine nanoluciferase substrate was added to 1× concentration in OptiMem phenol red-free medium with 4% FBS. Varying concentrations of inhibitor were added and incubated for 1 or 4 h before the nano-BRET signal was measured on a Perkin Elmer Envision plate reader. For kinetic assays, endurazine nanoluciferase substrate was used in place of vivazine, and the plate was placed in a Cytation5 multi-mode reader pre-equilibrated to 37 °C and 5% CO2.

KRAS^G12S [4] = target: T1, KRAS^G12S; assay: Cellular RAS–CYPA binding (tri-complex formation), nano-BRET in U2OS cells; assay type: cell-based; design: expressed in transfected cells; host or cells: U2OS PPIA-KO; conditions: (95% CI)
From the text: as §1

KRAS^G12V [5] = target: T2, KRAS^G12V (Homo sapiens, UniProt P01116+P62937, G12V); assay: as above; assay type: cell-based; design: expressed in transfected cells; host or cells: U2OS PPIA-KO; conditions: for Cellular milliBRET signal between CYPA and KRAS G12V: KRASG12V, single replicates
From the text: as §1

KRAS^G12V [6] = target: T2, KRAS^G12V; assay: RAS binding affinity of compound-bound CYPA (Kd2), SPR; design: His6-TEV (N); made in house; host or cells: BL21(DE3) Escherichia coli; conditions: steady state, (95% CI)

In the case of `CCn1c(-c2cc(N3CCN(C4CC4)CC3)cnc2[C@H](C)OC)c2c3cc(ccc31)-c1csc(n1)C[C@H](NC(=O)[C@H]1[C@@H]3COC[C@@H]31)C(=O)N1CCC[C@H](N1)C(=O)OCC(C)(C)C2` [RMC-7977], the “% inhibition of DUSP6 vs control” value [1] is reported as 87.2112% and 72.4915% and 81.7249%, the “% Body Weight Change” value ([2]; NCI-H441 tumor bearing BALB/c nude mice, day 4, individual animals) is reported as -4.55% and -0.24% and 1.44% and 1.89% and -1.08% and 0.22% and -2.41% and 1.83% and the “% Body Weight Change” value ([2]; NCI-H441 tumor bearing BALB/c nude mice, day 7, individual animals) is reported as -9.19% and -1.70% and 0.68% and 1.75% and -4.40% and -1.88% and -16.62% and -2.26%. For the same compound, the “% Body Weight Change” value ([2]; NCI-H441 tumor bearing BALB/c nude mice, day 11, individual animals) was -4.55% and -4.86% and 0.27% and 1.46% and -4.26% and -1.16% and -0.43% and 0.65%, the “% Body Weight Change” value ([2]; NCI-H441 tumor bearing BALB/c nude mice, day 14, individual animals) was -3.50% and -2.87% and 1.04% and 3.87% and -4.31% and -0.18% and -2.76% and -1.00% and the “% Body Weight Change” value ([2]; NCI-H441 tumor bearing BALB/c nude mice, day 18, individual animals) was -0.17% and 7.78% and -13.00% and 19.16% and -2.62% and 1.70% and -3.06% and 3.09%. The “% Body Weight Change” value ([2]; NCI-H441 tumor bearing BALB/c nude mice, day 21, individual animals) was -1.14% and -0.19% and 3.16% and 1.56% and -3.51% and 3.31% and -2.50% and 1.35%, the “% Body Weight Change” value ([2]; NCI-H441 tumor bearing BALB/c nude mice, day 25, individual animals) was -5.65% and 1.02% and 4.20% and 4.72% and -0.28% and 1.43% and -6.63% and 1.91% and the “% Body Weight Change” value ([2]; NCI-H441 tumor bearing BALB/c nude mice, day 28, individual animals) was -1.90% and 1.90% and 4.11% and 4.06% and 0.28% and 2.82% and -8.01% and 4.78%. The “% Body Weight Change” value ([2]; PDAC G12D tumor bearing BALB/c nude mice, day 3, individual animals) was -4.17%, the “% Body Weight Change” value ([2]; PDAC G12D tumor bearing BALB/c nude mice, day 7, individual animals) was -4.17% and the “% Body Weight Change” value ([2]; PDAC G12D tumor bearing BALB/c nude mice, day 14, individual animals) was -8.33%. For the same compound, the “% Body Weight Change” value ([2]; PDAC G12D tumor bearing BALB/c nude mice, day 17, individual animals) was -8.33%, the “% Body Weight Change” value ([2]; PDAC G12D tumor bearing BALB/c nude mice, day 21, individual animals) was -8.00% and 0.00% and the “% Body Weight Change” value ([2]; PDAC G12D tumor bearing BALB/c nude mice, day 24, individual animals) was -8.00%. For the same compound, the “% Body Weight Change” value ([2]; PDAC G12D tumor bearing BALB/c nude mice, day 28, individual animals) was 4.00%, the “effect on body weights” value ([2]; all 15 KRAS^G12X xenograft models, 10 mg kg^−1) was “minimal effect on body weights” and the tolerability ([2]; repeated daily administration at 10 mg kg^−1, NCI-H441 model) was “well tolerated”. For the same compound, the EC50 (KRAS^G12S [3]) was 15.1 nM, the EC50 (KRAS^G12S [4]) was 2.24 nM and the “Cellular milliBRET signal between CYPA and KRAS G12V” value (KRAS^G12V [5]; RMC-7977 0.152 nM) was 1.173 milliBRET and 1.06 milliBRET and 0.9358 milliBRET and 1.334 milliBRET and 1.012 milliBRET and 1.508 milliBRET. The “Cellular milliBRET signal between CYPA and KRAS G12V” value (KRAS^G12V [5]; RMC-7977 0.457 nM) was 1.649 milliBRET and 2.359 milliBRET and 1.781 milliBRET and 2.809 milliBRET and 1.779 milliBRET and 2.2094 milliBRET, the “Cellular milliBRET signal between CYPA and KRAS G12V” value (KRAS^G12V [5]; RMC-7977 1.372 nM) was 4.1167 milliBRET and 4.336 milliBRET and 3.9 milliBRET and 4.218 milliBRET and 4.578 milliBRET and 4.094 milliBRET and the “Cellular milliBRET signal between CYPA and KRAS G12V” value (KRAS^G12V [5]; RMC-7977 4.115 nM) was 7.461 milliBRET and 7.409 milliBRET and 7.89 milliBRET and 7.071 milliBRET and 7.622 milliBRET and 7.676 milliBRET. For the same compound, the “Cellular milliBRET signal between CYPA and KRAS G12V” value (KRAS^G12V [5]; RMC-7977 12.346 nM) was 11.4839 milliBRET and 11.5824 milliBRET and 12.0176 milliBRET and 11.1912 milliBRET and 11.5065 milliBRET and 11.1163 milliBRET, the “Cellular milliBRET signal between CYPA and KRAS G12V” value (KRAS^G12V [5]; RMC-7977 37.037 nM) was 13.6301 milliBRET and 14.0182 milliBRET and 13.661 milliBRET and 13.6725 milliBRET and 13.3211 milliBRET and 13.487 milliBRET and the “Cellular milliBRET signal between CYPA and KRAS G12V” value (KRAS^G12V [5]; RMC-7977 111.111 nM) was 14.1557 milliBRET and 14.0898 milliBRET and 14.0287 milliBRET and 13.9679 milliBRET and 13.745 milliBRET and 13.7924 milliBRET. The “Cellular milliBRET signal between CYPA and KRAS G12V” value (KRAS^G12V [5]; RMC-7977 333.333 nM) was 14.0834 milliBRET and 13.7044 milliBRET and 13.6567 milliBRET and 12.9685 milliBRET and 13.078 milliBRET and 12.7653 milliBRET, the “Cellular milliBRET signal between CYPA and KRAS G12V” value (KRAS^G12V [5]; RMC-7977 1000.000 nM) was 14.1055 milliBRET and 12.901 milliBRET and 13.6313 milliBRET and 12.8159 milliBRET and 14.3526 milliBRET and 13.1398 milliBRET and the EC50 (KRAS^G12V [5]; KRAS^G12V, nano-BRET, (95% CI)) was 2.25 nM. It also gave a Kd (KRAS^G12V [6]) of 85 nM.
